Assay results reported in PMC5451150 (Journal of Medicinal Chemistry, 2016).

What was measured:
[1] = target: PRDM9 (Homo sapiens, UniProt Q9NQV7); test: Methyltransferase selectivity panel: PRDM9; type: biochemical; details: substrate Histone H3; top concentration 10 µM
[2] = target: NSD2 (E1099K) (Homo sapiens, UniProt O96028, E1099K); test: Methyltransferase selectivity panel: NSD2 (E1099K); type: biochemical; details: substrate Nucleosomes; top concentration 10 µM
[3] = target: PRMT8 (Homo sapiens, UniProt Q9NR22); test: Methyltransferase selectivity panel: PRMT8; type: biochemical; details: substrate Histone H4; top concentration 10 µM
Chain of PRMT8 (Q9NR22 whole entry): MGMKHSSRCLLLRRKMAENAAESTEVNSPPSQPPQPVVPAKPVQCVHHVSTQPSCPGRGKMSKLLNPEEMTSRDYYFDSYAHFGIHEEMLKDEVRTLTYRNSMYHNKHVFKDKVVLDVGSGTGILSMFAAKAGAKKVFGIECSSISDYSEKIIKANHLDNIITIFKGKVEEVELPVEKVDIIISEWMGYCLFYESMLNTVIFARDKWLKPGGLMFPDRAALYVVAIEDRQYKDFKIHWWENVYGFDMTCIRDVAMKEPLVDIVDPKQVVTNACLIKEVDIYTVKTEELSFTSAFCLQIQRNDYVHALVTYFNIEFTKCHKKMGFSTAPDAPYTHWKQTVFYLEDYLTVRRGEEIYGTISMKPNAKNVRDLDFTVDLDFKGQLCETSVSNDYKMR

[4] = target: DNMT3b (Homo sapiens, UniProt Q9UBC3); test: Methyltransferase selectivity panel: DNMT3b; type: biochemical; details: substrate Lambda DNA; top concentration 10 µM
[5] = target: PRMT5 (Homo sapiens, UniProt O14744); test: Methyltransferase selectivity panel: PRMT5; type: biochemical; details: substrate Histone 2A; top concentration 10 µM
Chain of PRMT5 (O14744 whole entry): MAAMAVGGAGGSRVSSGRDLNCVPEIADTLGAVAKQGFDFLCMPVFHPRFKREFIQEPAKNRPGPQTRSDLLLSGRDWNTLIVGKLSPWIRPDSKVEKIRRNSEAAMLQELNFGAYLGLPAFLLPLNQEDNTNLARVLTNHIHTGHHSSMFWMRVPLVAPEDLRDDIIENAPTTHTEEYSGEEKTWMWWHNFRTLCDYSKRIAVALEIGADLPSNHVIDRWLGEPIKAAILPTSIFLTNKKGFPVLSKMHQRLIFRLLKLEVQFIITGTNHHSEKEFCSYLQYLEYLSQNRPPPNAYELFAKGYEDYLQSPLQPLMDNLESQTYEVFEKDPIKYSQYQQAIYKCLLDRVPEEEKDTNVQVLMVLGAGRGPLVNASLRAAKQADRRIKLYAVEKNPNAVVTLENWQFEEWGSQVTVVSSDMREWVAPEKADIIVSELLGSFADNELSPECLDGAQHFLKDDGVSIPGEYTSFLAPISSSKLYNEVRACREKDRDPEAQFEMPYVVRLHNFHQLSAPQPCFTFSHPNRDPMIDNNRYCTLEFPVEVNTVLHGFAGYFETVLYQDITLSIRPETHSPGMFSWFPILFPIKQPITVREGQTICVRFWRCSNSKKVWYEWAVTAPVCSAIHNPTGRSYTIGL

[6] = target: GLP (Homo sapiens, UniProt Q9H9B1); test: Methyltransferase selectivity panel: GLP; type: biochemical; details: substrate Histone H3 (1-21); top concentration 10 µM
[7] = target: DNMT3a (Homo sapiens, UniProt Q9Y6K1); test: Methyltransferase selectivity panel: DNMT3a; type: biochemical; details: substrate Lambda DNA; top concentration 10 µM
[8] = tested on: KARPAS-422 B-cell lymphoma xenograft; test: KARPAS-422 B-cell lymphoma xenograft efficacy and PK/PD in CB-17 SCID mice; details: for antitumor efficacy (in words): 160 mg/kg BID
[9] = target: SUV420H1TV2 (Homo sapiens, UniProt Q4FZB7); test: Methyltransferase selectivity panel: SUV420H1TV2; type: biochemical; details: substrate Nucleosomes; top concentration 10 µM
[10] = target: NSD2 (Homo sapiens, UniProt O96028); test: Methyltransferase selectivity panel: NSD2; type: biochemical; details: substrate Nucleosomes; top concentration 10 µM
Chain of NSD2 (O96028 whole entry): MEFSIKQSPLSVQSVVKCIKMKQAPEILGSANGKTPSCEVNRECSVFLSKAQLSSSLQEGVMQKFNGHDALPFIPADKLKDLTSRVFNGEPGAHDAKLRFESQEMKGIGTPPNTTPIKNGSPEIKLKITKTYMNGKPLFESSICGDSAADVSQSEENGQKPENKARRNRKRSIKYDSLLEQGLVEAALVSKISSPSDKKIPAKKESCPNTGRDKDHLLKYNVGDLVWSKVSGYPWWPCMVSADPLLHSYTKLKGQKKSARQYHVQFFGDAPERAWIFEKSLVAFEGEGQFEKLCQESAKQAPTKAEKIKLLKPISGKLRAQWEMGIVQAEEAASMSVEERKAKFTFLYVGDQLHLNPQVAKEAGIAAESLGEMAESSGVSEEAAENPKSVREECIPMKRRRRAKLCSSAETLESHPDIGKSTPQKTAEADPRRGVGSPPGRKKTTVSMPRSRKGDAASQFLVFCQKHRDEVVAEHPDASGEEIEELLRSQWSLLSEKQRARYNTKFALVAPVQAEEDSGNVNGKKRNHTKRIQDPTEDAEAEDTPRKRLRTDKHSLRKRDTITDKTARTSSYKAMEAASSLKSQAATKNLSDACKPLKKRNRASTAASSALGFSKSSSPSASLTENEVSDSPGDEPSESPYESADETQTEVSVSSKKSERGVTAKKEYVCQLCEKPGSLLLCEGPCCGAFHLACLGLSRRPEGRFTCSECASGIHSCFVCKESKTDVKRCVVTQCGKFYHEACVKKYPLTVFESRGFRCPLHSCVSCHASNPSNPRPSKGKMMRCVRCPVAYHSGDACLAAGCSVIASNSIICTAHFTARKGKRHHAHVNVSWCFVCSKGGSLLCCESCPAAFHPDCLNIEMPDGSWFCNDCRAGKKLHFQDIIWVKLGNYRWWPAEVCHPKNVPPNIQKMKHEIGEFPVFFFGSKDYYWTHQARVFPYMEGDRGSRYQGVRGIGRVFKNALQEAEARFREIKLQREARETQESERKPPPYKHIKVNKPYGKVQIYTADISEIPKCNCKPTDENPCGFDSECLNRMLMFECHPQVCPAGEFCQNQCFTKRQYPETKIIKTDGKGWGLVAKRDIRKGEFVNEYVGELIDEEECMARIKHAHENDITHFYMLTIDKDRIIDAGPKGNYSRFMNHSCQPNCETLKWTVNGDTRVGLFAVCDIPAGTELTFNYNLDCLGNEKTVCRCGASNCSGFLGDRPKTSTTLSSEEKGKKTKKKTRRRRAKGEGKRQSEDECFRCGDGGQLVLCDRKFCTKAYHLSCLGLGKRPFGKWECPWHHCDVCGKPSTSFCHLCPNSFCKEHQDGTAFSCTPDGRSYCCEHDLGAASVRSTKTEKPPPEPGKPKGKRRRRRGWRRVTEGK

[11] = target: SUV39H2 (Homo sapiens, UniProt Q9H5I1); test: Methyltransferase selectivity panel: SUV39H2; type: biochemical; details: substrate Histone H3; top concentration 10 µM
Chain of SUV39H2 (Q9H5I1 whole entry): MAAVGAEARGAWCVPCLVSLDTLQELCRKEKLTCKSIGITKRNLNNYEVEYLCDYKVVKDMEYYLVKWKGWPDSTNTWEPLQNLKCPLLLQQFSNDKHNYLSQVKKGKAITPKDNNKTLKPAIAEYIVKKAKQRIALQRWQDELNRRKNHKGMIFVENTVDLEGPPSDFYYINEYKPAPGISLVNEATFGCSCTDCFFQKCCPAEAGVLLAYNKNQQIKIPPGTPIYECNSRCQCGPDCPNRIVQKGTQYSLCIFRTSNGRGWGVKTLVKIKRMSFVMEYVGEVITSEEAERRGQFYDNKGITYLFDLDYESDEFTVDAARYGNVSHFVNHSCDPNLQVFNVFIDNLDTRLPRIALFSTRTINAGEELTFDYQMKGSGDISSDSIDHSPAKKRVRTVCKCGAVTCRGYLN

[12] = Rat pharmacokinetics (iv and po); type: in vivo; details: po 25 mg/kg, male Sprague–Dawley rats
[13] = target: SETD2 (Homo sapiens, UniProt Q9BYW2); test: Methyltransferase selectivity panel: SETD2; type: biochemical; details: substrate Histone H4; top concentration 10 µM
[14] = tested on: cytochrome P450 enzymes 1A2, 2C9, 2C8, 2D6, and 3A4; test: Time-dependent inhibition (TDI) of cytochrome P450 enzymes; type: in vitro ADME
[15] = tested on: panel of fifty-four physiologically relevant receptors, transporters, and ion channels; test: Secondary pharmacology panel; details: at 10 μM; fifty-four targets
[16] = target: PRMT3 (Homo sapiens, UniProt O60678); test: Methyltransferase selectivity panel: PRMT3; type: biochemical; details: substrate Histone H4; top concentration 10 µM
Chain of PRMT3 (O60678 whole entry): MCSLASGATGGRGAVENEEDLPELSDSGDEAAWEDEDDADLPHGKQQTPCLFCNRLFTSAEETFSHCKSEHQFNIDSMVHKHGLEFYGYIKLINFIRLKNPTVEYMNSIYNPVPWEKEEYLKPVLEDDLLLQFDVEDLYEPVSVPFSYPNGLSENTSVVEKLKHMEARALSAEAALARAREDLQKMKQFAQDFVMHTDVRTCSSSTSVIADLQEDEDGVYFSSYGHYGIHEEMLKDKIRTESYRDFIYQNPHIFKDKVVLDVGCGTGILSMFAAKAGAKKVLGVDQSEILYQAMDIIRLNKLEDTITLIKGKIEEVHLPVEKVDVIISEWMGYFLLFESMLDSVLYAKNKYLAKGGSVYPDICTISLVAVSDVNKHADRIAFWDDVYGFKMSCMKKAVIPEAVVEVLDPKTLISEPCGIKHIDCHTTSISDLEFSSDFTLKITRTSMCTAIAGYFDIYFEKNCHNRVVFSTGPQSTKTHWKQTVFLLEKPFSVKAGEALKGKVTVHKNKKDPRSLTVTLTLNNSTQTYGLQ

[17] = Plasma protein binding, human; type: in vitro ADME
[18] = target: SET8 (Homo sapiens, UniProt Q9NQR1); test: Methyltransferase selectivity panel: SET8; type: biochemical; details: substrate Nucleosomes; top concentration 10 µM
Chain of SET8 (Q9NQR1 whole entry): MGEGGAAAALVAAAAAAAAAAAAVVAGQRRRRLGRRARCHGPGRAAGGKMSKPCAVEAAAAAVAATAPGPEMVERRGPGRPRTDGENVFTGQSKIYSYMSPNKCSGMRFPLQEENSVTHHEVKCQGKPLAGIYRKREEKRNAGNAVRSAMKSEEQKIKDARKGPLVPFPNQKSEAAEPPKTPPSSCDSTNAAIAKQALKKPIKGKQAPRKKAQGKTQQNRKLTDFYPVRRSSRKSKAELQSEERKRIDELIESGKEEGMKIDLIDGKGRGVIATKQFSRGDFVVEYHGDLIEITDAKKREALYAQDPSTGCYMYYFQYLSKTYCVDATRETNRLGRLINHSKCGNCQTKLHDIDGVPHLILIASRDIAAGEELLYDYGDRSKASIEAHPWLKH

[19] = target: SUV39H1 (Homo sapiens, UniProt O43463); test: Methyltransferase selectivity panel: SUV39H1; type: biochemical; details: substrate Histone H3; top concentration 10 µM
[20] = target: DOT1L (Homo sapiens, UniProt Q8TEK3); test: Methyltransferase selectivity panel: DOT1L; type: biochemical; details: substrate Nucleosomes; top concentration 10 µM
[21] = Plasma protein binding, mouse; type: in vitro ADME
[22] = target: MLL3 (Homo sapiens, UniProt Q8NEZ4); test: Methyltransferase selectivity panel: MLL3; type: biochemical; details: substrate Core Histone; top concentration 10 µM
[23] = target: MLL1 (Homo sapiens, UniProt Q03164); test: Methyltransferase selectivity panel: MLL1; type: biochemical; details: substrate Nucleosomes; top concentration 10 µM
[24] = target: SET1B (Homo sapiens, UniProt Q9UPS6); test: Methyltransferase selectivity panel: SET1B; type: biochemical; details: substrate Core Histone; top concentration 10 µM
[25] = target: DNMT1 (Homo sapiens, UniProt P26358); test: Methyltransferase selectivity panel: DNMT1; type: biochemical; details: substrate Poly dl-dC; top concentration 10 µM
[26] = Plasma protein binding, rat; type: in vitro ADME
[27] = target: PRMT4 (Homo sapiens, UniProt Q86X55); test: Methyltransferase selectivity panel: PRMT4; type: biochemical; details: substrate Histone H3; top concentration 10 µM
Chain of PRMT4 (Q86X55 whole entry): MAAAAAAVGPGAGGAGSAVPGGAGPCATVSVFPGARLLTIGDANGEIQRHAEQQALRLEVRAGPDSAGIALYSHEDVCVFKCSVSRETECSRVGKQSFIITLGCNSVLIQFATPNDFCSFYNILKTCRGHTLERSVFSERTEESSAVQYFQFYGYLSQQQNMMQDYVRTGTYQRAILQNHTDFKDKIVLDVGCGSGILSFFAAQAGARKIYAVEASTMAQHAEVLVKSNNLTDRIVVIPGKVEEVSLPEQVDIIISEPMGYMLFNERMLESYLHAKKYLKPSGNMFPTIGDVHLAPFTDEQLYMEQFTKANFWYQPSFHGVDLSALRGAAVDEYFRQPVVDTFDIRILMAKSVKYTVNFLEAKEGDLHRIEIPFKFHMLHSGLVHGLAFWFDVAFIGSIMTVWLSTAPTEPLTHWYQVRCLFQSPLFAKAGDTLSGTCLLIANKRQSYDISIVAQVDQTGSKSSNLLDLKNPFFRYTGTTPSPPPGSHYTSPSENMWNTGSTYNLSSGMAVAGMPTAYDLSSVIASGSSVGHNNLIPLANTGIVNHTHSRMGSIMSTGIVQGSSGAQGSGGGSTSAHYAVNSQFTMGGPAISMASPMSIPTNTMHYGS

[28] = target: PRMT1 (Homo sapiens, UniProt Q99873); test: Methyltransferase selectivity panel: PRMT1; type: biochemical; details: substrate Histone H4; top concentration 10 µM
[29] = target: G9a (Homo sapiens, UniProt Q96KQ7); test: Methyltransferase selectivity panel: G9a; type: biochemical; details: substrate Histone H3 (1-21); top concentration 10 µM
[30] = target: MLL2 (Homo sapiens, UniProt O14686); test: Methyltransferase selectivity panel: MLL2; type: biochemical; details: substrate Core Histone; top concentration 10 µM
[31] = target: MLL4; test: Methyltransferase selectivity panel: MLL4; type: biochemical; details: substrate Core Histone; top concentration 10 µM
[32] = target: PRMT6 (Homo sapiens, UniProt Q96LA8); details: substrate Histone H3; top concentration 10 µM
Chain of PRMT6 (Q96LA8 whole entry): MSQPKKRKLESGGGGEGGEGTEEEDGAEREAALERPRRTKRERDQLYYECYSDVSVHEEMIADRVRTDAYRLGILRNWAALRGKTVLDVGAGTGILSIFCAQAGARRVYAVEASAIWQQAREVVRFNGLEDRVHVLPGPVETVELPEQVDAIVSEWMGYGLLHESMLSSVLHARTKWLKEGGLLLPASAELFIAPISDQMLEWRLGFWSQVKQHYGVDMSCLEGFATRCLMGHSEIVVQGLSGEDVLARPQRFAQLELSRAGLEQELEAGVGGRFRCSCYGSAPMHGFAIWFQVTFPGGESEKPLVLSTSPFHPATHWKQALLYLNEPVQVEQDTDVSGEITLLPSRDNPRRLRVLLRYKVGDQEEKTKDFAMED

[33] = target: NSD1 (Homo sapiens, UniProt Q96L73); test: Methyltransferase selectivity panel: NSD1; type: biochemical; details: substrate Nucleosomes; top concentration 10 µM
[34] = Plasma protein binding, dog; type: in vitro ADME
[35] = target: SMYD2 (Homo sapiens, UniProt Q9NRG4); test: Methyltransferase selectivity panel: SMYD2; type: biochemical; details: substrate Histone H4; top concentration 10 µM
[36] = Intrinsic clearance in mouse liver microsomes; type: in vitro ADME
[37] = target: T1, EZH2 C663S (Homo sapiens, UniProt O75530+Q15910, C663S); test: EZH2 C663S incorporated into reconstituted PRC2, potency; type: biochemical; details: single substitution cysteine to serine at position 663, reconstituted PRC2
T1 construct: made in house

[38] = Dog pharmacokinetics (iv and po); type: in vivo; details: po 5 mg/kg, male beagle dogs

Chain of NSD2 (E1099K) (O96028 whole entry E1099K): as the sequence (O96028 whole entry) above, with E1099K counted along it

Cmax unbound (value in brackets) [12]: 593 nM
time-dependent inhibition (TDI) of cytochrome P450 enzymes [14]: no time-dependent inhibition
inhibition of any target of the panel [15]: ≤ 50%
PPB [17]: 92.8 % bound
PPB [21]: 97.9 % bound
PPB [26]: 89.9 % bound
PPB ([34]; dog plasma): 90.3 % bound
fraction unbound ([34]; plasma, in vitro, dog, read-out: fu (fraction unbound to plasma protein)): 0.089
Clint [36]: 159 μL/min/mg protein
microsomal CLint ([36]; mouse, liver microsomes): > 100 µL/min/mg
potency in mutated EZH2 C663S (versus EZH2) [37]: decreased
Cmax unbound (value in brackets) [38]: 120 nM
SMILES: COc1cc(C)[nH]c(=O)c1CNC(=O)c1c(C)n([C@H](C)C2CCN(CC(F)(F)F)CC2)c2ccccc12 [compound 13, (R)-N-((4-Methoxy-6-methyl-2-oxo-1,2-dihydropyridin-3-yl)methyl)-2-methyl-1-(1-(1-(2,2,2-trifluoroethyl)piperidin-4-yl)ethyl)-1H-indole-3-carboxamide]
PRDM9 IC50 [1]: no inhibition or compound activity that could not be fit to an IC50 curve
NSD2 (E1099K) IC50 [2]: no inhibition or compound activity that could not be fit to an IC50 curve
PRMT8 IC50 [3]: no inhibition or compound activity that could not be fit to an IC50 curve
DNMT3b IC50 [4]: no inhibition or compound activity that could not be fit to an IC50 curve
PRMT5 IC50 [5]: no inhibition or compound activity that could not be fit to an IC50 curve
GLP IC50 [6]: no inhibition or compound activity that could not be fit to an IC50 curve
DNMT3a IC50 [7]: no inhibition or compound activity that could not be fit to an IC50 curve
antitumor efficacy (in words) [8]: efficacious
antitumor efficacy (in words) ([8]; listed as CPI-1205): robust antitumor effects
time to observed tumor regression ([8]; 160 mg/kg po BID, female CB-17 SCID mice): ≤ 2 weeks
SUV420H1TV2 IC50 [9]: no inhibition or compound activity that could not be fit to an IC50 curve
NSD2 IC50 [10]: no inhibition or compound activity that could not be fit to an IC50 curve
SUV39H2 IC50 [11]: no inhibition or compound activity that could not be fit to an IC50 curve
SETD2 IC50 [13]: no inhibition or compound activity that could not be fit to an IC50 curve
PRMT3 IC50 [16]: no inhibition or compound activity that could not be fit to an IC50 curve
SET8 IC50 [18]: no inhibition or compound activity that could not be fit to an IC50 curve
SUV39H1 IC50 [19]: no inhibition or compound activity that could not be fit to an IC50 curve
DOT1L IC50 [20]: no inhibition or compound activity that could not be fit to an IC50 curve
MLL3 IC50 [22]: no inhibition or compound activity that could not be fit to an IC50 curve
MLL1 IC50 [23]: no inhibition or compound activity that could not be fit to an IC50 curve
SET1B IC50 [24]: no inhibition or compound activity that could not be fit to an IC50 curve
DNMT1 IC50 [25]: no inhibition or compound activity that could not be fit to an IC50 curve
PRMT4 IC50 [27]: no inhibition or compound activity that could not be fit to an IC50 curve
PRMT1 IC50 [28]: no inhibition or compound activity that could not be fit to an IC50 curve
G9a IC50 [29]: no inhibition or compound activity that could not be fit to an IC50 curve
MLL2 IC50 [30]: no inhibition or compound activity that could not be fit to an IC50 curve
MLL4 IC50 [31]: no inhibition or compound activity that could not be fit to an IC50 curve
PRMT6 IC50 [32]: no inhibition or compound activity that could not be fit to an IC50 curve
NSD1 IC50 [33]: no inhibition or compound activity that could not be fit to an IC50 curve
SMYD2 IC50 [35]: no inhibition or compound activity that could not be fit to an IC50 curve
